Experimental data taken from article PMC4019984, “Kinase and channel activity of TRPM6 are co-ordinated by a dimerization motif and pocket interaction” (Biochemical Journal, 2014).

Tested on: GST-tagged TRPM6-(1700–end)
Test: Phosphorylation site mapping of the dimerization peptide by TRPM6 kinase
Format: biochemical, human
Conditions: 500 μM biotinylated peptide, in vitro, trypsin digest, HPLC, Edman solid-phase sequencing
Experimental: A kinase reaction was set up in a volume of 20 μl, with the wild-type biotinylated dimerization peptide and the active (residues 1700–end) kinase fragment in buffer A containing 0.1% 2-mercaptoethanol, 10 mM MgCl2 and 0.1 mM [γ-^32P]ATP (~1000 cpm·pmol^−1). Assays were carried out for 30 min at 30°C with shaking at […] The reaction was terminated by the addition of LDS sample buffer. DTT was added to a final concentration of 10 mM, the samples were boiled, then alkylated with 50 mM iodoacetamide and subsequently resolved by a Bis-Tris 4–12% polyacrylamide gel, which was stained with Colloidal Coomassie Blue. […] Following tryptic digestion, more than 95% of the ^32P radioactivity incorporated in the gel bands was recovered, and the samples were chromatographed on a Vydac 218TP5215 C18 column (Separations Group) equilibrated in 0.1% trifluoroacetic acid in water. The column was developed with a linear acetonitrile gradient at a flow rate of 0.2 ml/min and fractions of 0.1 ml were collected and analysed for ^32P radioactivity by Cerenkov counting. Isolated phosphopeptides were analysed by MS analysis as follows. […] The five most intense ions, above a specified minimum signal threshold, based on a low-resolution (R=20000) preview of the survey scan, were fragmented by collision-induced dissociation and recorded in the linear ion trap (target value of 5000). […]

## biotin-C6-LKSPQEPHHHYSAIERNNLMRLSQ-TIPFTPVQLFAGEEITV [biotinylated dimerization motif peptide, biotin-C6 wild-type dimerization motif peptide; conjugated to streptavidin–Sepharose]
  phosphorylation site in dimerization motif peptide: threonine at position 22
